Like-named read-outs stand apart in the source and are kept apart here.

A short description of data set [1]: Preliminary clinical pharmacokinetics, AURA Phase 1. The data set is classed as in vivo, human.
In data set [2] the target is EGFR variant III (EGFRvIII) (Homo sapiens, UniProt P00533, DELINS30-297G). Briefly: Phospho-EGFR immunoblot in transfected 293 cells, EGFRvIII. Format: cell-based. Particulars: 6 hours. For orientation: A western blot detects proteins with antibodies after separation by electrophoresis.
Another data set concerns the target IGF-1R (Homo sapiens, UniProt P08069). In words: Cellular IGF-1R phosphorylation assay. Particulars: cellular phosphorylation assay as surrogate. Format: cell-based.
The test system of data set [3] is mutant and wild-type EGFR cell lines. In words: Sytox phenotypic assay across cell lines. The data set is classed as cell-based.
The test system of data set [4] is EGFR^L858R driven lung adenocarcinomas (C/L858R mice). Briefly: C/L858R transgenic lung adenocarcinoma model.
A further data set has as its target HER2 (ErbB2) (Homo sapiens, UniProt P04626). In words: Cellular HER2 phosphorylation. Format: cell-based. Particulars: three cellular approaches.
Data set [5] deals with EGFR^L858R + T790M driven lung adenocarcinomas (C/L+T mice). In words: C/L+T transgenic lung adenocarcinoma model. Particulars: AZD9291 5 mg/kg/day, afatinib 7.5 mg/kg/day, AZ5104 5 mg/kg/day; one to two weeks.
For data set [6], the target named is wild-type EGFR (A431, LOVO, NCI-H2073) (Homo sapiens, UniProt P00533). Briefly: In vitro EGFR phosphorylation assay. The data set is classed as cell-based. Particulars: read-out: potency against wild-type EGFR.
Data set [7] concerns Parental EGFRm+ lines (PC-9, H3255, HCC827, HCC4006, 11-18). Briefly: Growth inhibition assay. The data set is classed as cell-based. Particulars: independent laboratory.
Data set [8] relates to EGFR^L858R driven lung adenocarcinomas (C/L858R mice). Particulars: cited from earlier work.
Data set [9] concerns EGFR^L858R + T790M driven lung adenocarcinomas (C/L+T mice). Particulars: cited from earlier work.
A short description of data set [10]: Blood glucose and insulin levels after single oral dose in rats. Format: in vivo, rat. Particulars: single oral dose of 200 mg/kg, over a 24 hour period.
For data set [11], the system named is advanced EGFRm+ T790M NSCLC. Briefly: Radiographic tumor response. The data set is classed as in vivo, human. Particulars: for tumor shrinkage: 20 mg once daily.
The nature of data set [12]: Adverse events and blood glucose in two patients, AURA Phase 1. Format: in vivo, human.
Data set [13] is described as follows: Pharmacokinetics after oral dosing in the mouse. The data set is classed as in vivo.
The next data set has as its system A431 xenografts. Particulars: 5 mg/kg/day.
The nature of data set [14]: Body weight of xenograft-bearing mice on daily dosing. Particulars: daily dosing for 200 days, PC-9 and H1975 studies. Format: in vivo, mouse.
Data set [15] has as its system approximately 280 other kinases. Briefly: Commercial biochemical kinome panel.
Data set [16] has as its system lines harboring non-T790M resistance: 11-18/ER (NRAS), HCC827/ER2 (MET amplification), HCC4006/ER (EMT). Particulars: independent laboratory.
Data set [17] has as its system lines harboring EGFR T790M (H1975, HCC827/ER1, PC-9/BRc1 and H3255/XLR). Particulars: independent laboratory.
Data set [18] has as its system phospho-EGFR (Tyr1173) in H1975 xenografts. Briefly: Pharmacodynamics in H1975 xenografts. The data set is classed as in vivo, mouse. Particulars: single dose 5 mg/kg.
Data set [19] concerns EGFR L861Q, G719S and exon 19 insertion (I744-K745insKIPVAI). Briefly: Phospho-EGFR immunoblot in transfected 293 cells, rare sensitive mutants. Format: cell-based. Particulars: 6 hours.
The test system of a further data set is EBC-1 cells. In words: Large cell panel proliferation profiling study. Format: cell-based. Particulars: Homo sapiens, EBC-1, read-out: IC50, proliferation.
Data set [20] has as its system H1781 cells (VC insertion at G776 in exon 20 of HER2). Briefly: Growth inhibition of HER2 mutant H1781 cells. Format: cell-based. Particulars: NCI-H1781, read-out: IC50, growth.
In data set [21] the test system is PC-9 (ex19del) tumor xenograft. Briefly: PC-9.
Data set [22] has as its system phospho-EGFR and downstream markers. Particulars: 5mg/kg dosing.
The subject of the next data set is NCI-H820 cells. Briefly: Large cell panel proliferation profiling study. Particulars: NCI-H820, read-out: IC50, proliferation. The data set is classed as cell-based.
In data set [23] the test system is T790M EGFR cell lines (H1975, PC-9VanR). Particulars: compared to AZD9291.
Data set [24] deals with wild-type EGFR cell lines (Calu3, H2073). Briefly: Sytox Green live/dead cell phenotype assay, wild-type EGFR lines. The data set is classed as cell-based. Particulars: compared to AZD9291.
Data set [25] deals with EGFR in mutant and wild-type cell lines. Briefly: In vitro EGFR phosphorylation assay, mutant and wild-type cell lines overall. Particulars: compared to AZD9291.
Where [26] appears, read: patients, AZD9291 mesylate 20 mg oral, preliminary.

Chain of IGF-1R (P08069 31-1367, species assumed): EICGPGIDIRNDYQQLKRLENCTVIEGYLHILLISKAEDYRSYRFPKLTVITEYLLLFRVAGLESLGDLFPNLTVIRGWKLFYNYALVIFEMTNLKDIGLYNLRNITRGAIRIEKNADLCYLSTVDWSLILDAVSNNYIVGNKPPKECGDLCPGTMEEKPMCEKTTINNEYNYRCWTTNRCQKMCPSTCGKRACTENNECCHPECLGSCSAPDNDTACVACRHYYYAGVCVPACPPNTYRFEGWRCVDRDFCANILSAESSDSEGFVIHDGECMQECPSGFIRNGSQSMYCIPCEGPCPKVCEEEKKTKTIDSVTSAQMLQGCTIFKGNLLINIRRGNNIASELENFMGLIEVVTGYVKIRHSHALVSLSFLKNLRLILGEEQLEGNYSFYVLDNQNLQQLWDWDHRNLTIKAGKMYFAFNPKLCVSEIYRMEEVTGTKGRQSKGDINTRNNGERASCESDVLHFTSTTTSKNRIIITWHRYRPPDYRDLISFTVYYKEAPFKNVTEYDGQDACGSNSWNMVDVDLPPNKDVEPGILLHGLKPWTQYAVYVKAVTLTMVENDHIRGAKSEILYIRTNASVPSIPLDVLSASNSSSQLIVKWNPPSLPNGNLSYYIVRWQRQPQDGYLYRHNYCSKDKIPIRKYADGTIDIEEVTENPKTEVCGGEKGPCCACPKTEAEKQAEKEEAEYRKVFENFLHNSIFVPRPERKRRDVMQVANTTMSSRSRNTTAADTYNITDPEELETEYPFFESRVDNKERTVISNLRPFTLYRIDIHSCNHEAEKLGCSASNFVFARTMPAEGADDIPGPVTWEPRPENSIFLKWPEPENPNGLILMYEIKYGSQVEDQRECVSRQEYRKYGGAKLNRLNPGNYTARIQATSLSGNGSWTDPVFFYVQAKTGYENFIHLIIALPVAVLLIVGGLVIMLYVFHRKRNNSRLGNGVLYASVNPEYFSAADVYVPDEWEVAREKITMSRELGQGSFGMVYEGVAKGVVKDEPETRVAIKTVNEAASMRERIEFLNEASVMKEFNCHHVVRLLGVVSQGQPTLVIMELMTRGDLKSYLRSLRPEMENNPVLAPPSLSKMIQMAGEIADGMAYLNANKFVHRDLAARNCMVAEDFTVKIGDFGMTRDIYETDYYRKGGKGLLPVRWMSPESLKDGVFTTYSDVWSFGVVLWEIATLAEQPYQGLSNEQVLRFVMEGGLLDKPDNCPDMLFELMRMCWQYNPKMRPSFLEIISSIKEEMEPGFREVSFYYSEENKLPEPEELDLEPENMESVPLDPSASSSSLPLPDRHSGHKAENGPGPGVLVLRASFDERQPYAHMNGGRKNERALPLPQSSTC
Chain of HER2 (ErbB2) (P04626 676-1255 limits assumed): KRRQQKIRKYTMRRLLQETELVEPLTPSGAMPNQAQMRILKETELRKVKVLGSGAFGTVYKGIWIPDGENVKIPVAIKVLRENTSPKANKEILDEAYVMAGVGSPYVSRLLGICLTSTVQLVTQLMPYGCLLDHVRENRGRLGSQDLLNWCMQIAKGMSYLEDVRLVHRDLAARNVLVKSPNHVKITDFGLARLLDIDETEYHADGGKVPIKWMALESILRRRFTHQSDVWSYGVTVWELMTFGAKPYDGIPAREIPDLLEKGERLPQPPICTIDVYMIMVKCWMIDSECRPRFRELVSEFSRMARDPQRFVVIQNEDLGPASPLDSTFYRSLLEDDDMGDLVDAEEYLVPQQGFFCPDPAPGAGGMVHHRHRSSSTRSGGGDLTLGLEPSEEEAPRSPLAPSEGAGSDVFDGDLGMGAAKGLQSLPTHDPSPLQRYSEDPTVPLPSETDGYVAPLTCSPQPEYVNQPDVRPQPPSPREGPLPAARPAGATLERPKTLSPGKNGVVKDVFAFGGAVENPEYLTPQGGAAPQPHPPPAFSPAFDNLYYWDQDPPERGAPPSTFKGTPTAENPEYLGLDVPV

A word on the half-life: it is the time in which the quantity being followed falls by half. In the case of `C=CC(=O)Nc1cc(Nc2nccc(-c3c[nH]c4ccccc34)n2)c(OC)cc1N(C)CCN(C)C` [AZ5104], the half-life entry in [1] (setting [26]) is “at least 50 hours”. The “potency against EGFRvIII mutant” value in data set [2] is on record as “higher level of activity”. The “activity towards IGF-1R” value on IGF-1R is “did not exhibit significant activity”. In addition, the “potency across cell lines in phenotypic assay” value in data set [3] (compared to AZD9291) was “much greater potency across cell lines”. Besides, the “tumor response” value in data set [4] (AZ5104 5 mg/kg/day) and in data set [5] was “effective in shrinking tumors” each time. At HER2 (ErbB2), the “inhibition of phosphorylation of HER2” value is “more potency than AZD9291”. Besides, the IC50 in data set [6] was found to be 33 nM.
On to `CNC(=O)CN1CCC(Oc2cc3c(Nc4cccc(Cl)c4F)ncnc3cc2OC)CC1` [AZD8931], for which the “sensitivity of parental EGFRm+ lines” value in data set [7] was “sensitive”.
As for `C#Cc1cccc(Nc2ncnc3cc(OCCOC)c(OCCOC)cc23)c1` [erlotinib], the “sensitivity of parental EGFRm+ lines” value in data set [7] is listed as “sensitive”. Moreover, the tumor sensitivity result in [8] was “sensitive”; in [9], “resistant”.
Regarding `C=CC(=O)Nc1cc(Nc2nccc(-c3cn(C)c4ccccc34)n2)c(OC)cc1N(C)CCN(C)C` [AZD9291], the half-life in [1] (human, plasma, po, 20 mg) was at least 50 h; in [13] (plasma, po), about 3 h. The “change in blood glucose or insulin levels” value in data set [10] is given as “did not cause a significant change”. Also, in [11] (both patients, 20 mg/day), the duration of response entry is listed as “approximately 9 months”. Also, the progression-free time entry in data set [11] (both patients, 20 mg/day, RECIST 1.1) is “approximately 11 months”. For the same molecule, the tumor shrinkage came to 39.7% in data set [11] (first patient, scan 1); 48.3% in [11] (first patient, scan 2); 48.3% in [11] (first patient, scan 3); 48.3% in [11] (first patient, scan 4); 51.7% in data set [11] (first patient, scan 5); 38% in data set [11] (second patient, scan 1). Besides, the tumor shrinkage is 39.3% in data set [11] (second patient, scan 2); 56.7% in [11] (second patient, scan 3); 62% in data set [11] (second patient, scan 4); 59.3% in data set [11] (second patient, scan 5). In [12] (20 mg once daily), the diarrhea events entry is on record as “one reported CTCAE Grade 1 diarrhea”. Also, the rash events entry in data set [12] (20 mg once daily) was “no rash events”. The blood glucose levels entry in [12] (during the study) is listed as “No significant aberration”. For the same molecule, on IGF-1R, the “activity towards IGF-1R” value is on record as “did not exhibit significant activity”. Besides, the “reduction in tumor volume by MRI” value in [4] (AZD9291 5 mg/kg/day, afatinib 7.5 mg/kg/day, 5 of 5 mice) is listed as about 80%. Also, in data set [13], the bioavailability entry is “good bioavailability”. Moreover, the clearance entry in data set [13] is “moderate clearance”. For the same molecule, the tissue distribution result in [13] is “widely distributed in tissues”. Also, in the data set on A431 xenografts, the tumor growth inhibition entry was “moderate tumor growth inhibition”. In addition, the body weight loss result in [14] is “less than 5 % of starting body weight”. In data set [7], the “sensitivity of parental EGFRm+ lines” value is “sensitive”. Also, the “off-target kinase activity / secondary target profile” value in [15] (1 μM) is on record as “minimal off-target kinase activity”. Moreover, the “inhibition at 1 μM” value in data set [15] (ErbB2/4, ACK1, ALK, BLK, BRK, MLK1 and MNK2) was “greater than 60%”. The “activity against lines harboring non-T790M resistance” value in [16] is recorded as “not effective”. Also, the “activity against lines harboring EGFR T790M” value in data set [17] is “low nanomolar activity”. In [18] (after 6 hours), the “phospho-EGFR and downstream signalling” value is reported as “strongly inhibited”. In addition, the phospho-EGFR staining result in [18] (after the 30 hour time point) is “remained significantly diminished”. Moreover, the “effect on phospho-EGFR of L861Q, G719S and exon 19 insertion” value in data set [19] is listed as “somewhat less potent compared with the AZ5104 metabolite”. Besides, the values for the IC50 (in the data set with EBC-1 cells; in data set [20]; in the data set on NCI-H820 cells) were about 1000 nM, 80 nM and about 1000 nM, respectively. Moreover, the “tumors with no visible tumor” value in data set [21] (following 40 daily doses with 5 mg/kg, sustained out to 200 days) is recorded as 8 of 8. The “lowest dose with tumor shrinkage observed” value in data set [21] (once daily, after 14 days) came out at 2.5 mg/kg/day. In addition, the “target inhibition in treated tumors” value in data set [22] is “observed target inhibition”. Also, on HER2 (ErbB2), the “inhibition of phosphorylation of HER2” value is given as “moderate potency levels”. For the same molecule, the “tumor response” value in data set [5] was “significant tumor shrinkage”.
In the case of `COc1cc2ncnc(Nc3ccc(F)c(Cl)c3)c2cc1OCCCN1CCOCC1` [gefitinib, reference compound], the “time until tumors began to re-grow” value in data set [21] (6.25 mg/kg/day) was “approximately 90 days”. Further, in [21] (6.25 mg/kg/day, compared with AZD9291 5 mg/kg), the “tumor regression” value is “less tumor regression”.
As to `COc1cc2ncnc(Nc3ccc(F)c(Cl)c3)c2cc1NC(=O)/C=C/CN1CCCCC1` [dacomitinib], the “activity against T790M lines, Sytox” value in data set [23] was “much less activity against T790M lines”. Besides, the “potency towards wild-type EGFR, Sytox” value in data set [24] was “much greater potency towards wild-type EGFR”.
Regarding `C=CC(=O)Nc1cc(Nc2nccc(-c3cn(C)c4ccccc34)n2)c(OC)cc1N(C)CCNC` [AZ7550], the half-life result in data set [1] (setting [26]) is given as “at least 50 hours”. The “potency and profile against mutant and wild-type cell lines” value in data set [25] was “very similar potency and profile to AZD9291”. Besides, in [3], the “potency across cell lines in phenotypic assay” value was “broadly similar”. Besides, in data set [13] (circulating metabolite in plasma), the “total exposure levels (AUC) compared to the parent compound” value is “approximately 68%”.

Values taken from PMC4315625 (Cancer discovery, 2014).
